# “And” between values parts separate entries of the source, which are not always exact repeats. Identical values can stand only once. After the bases stand the sugars from the 5' end (letter, count) and the backbone: PS all phosphorothioate, else s phosphorothioate and o phosphodiester by linkage. Methylation of C is not given here. e = 2'-O-(2-methoxyethyl) (MOE); k = constrained ethyl (cEt); d = 2'-deoxy (DNA)
# Target: APOL1
# Settings: ASO
sequence,measurement,setting,value
"AAGGAGTTGCTGAAAC (sugars k4 d9 k3, PS)",target mRNA inhibition,"A431, 0.0625 µM",32%
same,target mRNA inhibition,"A431, 0.25 µM",48%
same,target mRNA inhibition,"A431, 1 µM",63%
"AAGTATTGCCAGCTAA (sugars k3 d5 k3 d5, PS)",target mRNA inhibition,"A431, 2 µM",90%
"AAGTATTGCCAGCTAA (sugars kddddkekekeddddd, PS)",target mRNA inhibition,"A431, 2 µM",25%
"AAGTATTGCCAGCTAA (sugars kkddddkdkdkddddd, PS)",target mRNA inhibition,"A431, 2 µM",70%
"AAGTATTGCCAGCTAA (sugars kkddddkekekddddd, PS)",target mRNA inhibition,"A431, 2 µM",62%
"AAGTATTGCCAGCTAA (sugars kkddddkekekkdddd, PS)",target mRNA inhibition,"A431, 2 µM",27%
"AAGTATTGCCAGCTAA (sugars kkkddddkdkdkdddd, PS)",target mRNA inhibition,"A431, 2 µM",54%
"AAGTATTGCCAGCTAA (sugars kkkddddkekeddddd, PS)",target mRNA inhibition,"A431, 2 µM",63%
"AAGTATTGCCAGCTAA (sugars kkkddddkekekdddd, PS)",target mRNA inhibition,"A431, 2 µM",47%
"AATTATGGAATTGCAG (sugars kddddkekekeddddd, PS)",target mRNA inhibition,"A431, 2 µM",55%
"AATTATGGAATTGCAG (sugars kkddddkekekkdddd, PS)",target mRNA inhibition,"A431, 2 µM",35%
"AATTCTATTAGAGGGC (sugars k2 d4 e3 k2 d5, PS)",target mRNA inhibition,"A431, 2 µM",73%
"AATTCTATTAGAGGGC (sugars kkkddddkekeddddd, PS)",target mRNA inhibition,"A431, 2 µM",82%
"ACACATCATTGGGTTA (sugars k3 d4 k3 e1 d5, PS)",target mRNA inhibition,"A431, 2 µM",59%
"ACACATCATTGGGTTA (sugars kddddkekekeddddd, PS)",target mRNA inhibition,"A431, 2 µM",36%
"ACACATCATTGGGTTA (sugars kkdddddkekeddddd, PS)",target mRNA inhibition,"A431, 2 µM",72%
"ACACATCATTGGGTTA (sugars kkddddkekekddddd, PS)",target mRNA inhibition,"A431, 2 µM",50%
"ACATCATTGGGTTATG (sugars kkddddkekekkdddd, PS)",target mRNA inhibition,"A431, 2 µM",70%
"ACGCAATGCTGACTTG (sugars k2 d4 e3 k2 d5, PS)",target mRNA inhibition,"A431, 2 µM",87%
"ACGCAATGCTGACTTG (sugars k3 d5 k3 d5, PS)",target mRNA inhibition,"A431, 0.0625 µM",54%
same,target mRNA inhibition,"A431, 0.25 µM",83%
same,target mRNA inhibition,"A431, 1 µM",94%
same,target mRNA inhibition,"A431, 2 µM",94%
"ACGCAATGCTGACTTG (sugars kddddkekekeddddd, PS)",target mRNA inhibition,"A431, 2 µM",72%
"ACTGAGGGTATATGAA (sugars k4 d9 k3, PS)",target mRNA inhibition,"A431, 0.0625 µM",22%
same,target mRNA inhibition,"A431, 0.25 µM",40%
same,target mRNA inhibition,"A431, 1 µM",58%
"AGATTGGCTCAGTGAC (sugars k4 d9 k3, PS)",target mRNA inhibition,"A431, 0.0625 µM",44% and 27%
same,target mRNA inhibition,"A431, 0.25 µM",70% and 52%
same,target mRNA inhibition,"A431, 1 µM",87% and 76%
"AGATTGGCTCTGGCTC (sugars kdddddkekekddddd, PS)",target mRNA inhibition,"A431, 2 µM",40%
"AGATTGGCTCTGGCTC (sugars kkddddkekekkdddd, PS)",target mRNA inhibition,"A431, 2 µM",18%
"AGCAGCCACGAATCCG (sugars k4 d9 k3, PS)",target mRNA inhibition,"A431, 0.0625 µM",40%
same,target mRNA inhibition,"A431, 0.25 µM",66%
same,target mRNA inhibition,"A431, 1 µM",63%
"AGCTTTAAACTCAGGT (sugars k3 d5 k3 d5, PS)",target mRNA inhibition,"A431, 2 µM",68%
"AGCTTTAAACTCAGGT (sugars kekddddeekkddddd, PS)",target mRNA inhibition,"A431, 2 µM",82%
"AGCTTTAAACTCAGGT (sugars kkkddddkekeddddd, PS)",target mRNA inhibition,"A431, 2 µM",85%
"AGTATTGTTTTTGTGG (sugars kkdddddkekeddddd, PS)",target mRNA inhibition,"A431, 2 µM",91%
"AGTATTGTTTTTGTGG (sugars kkddddkekekddddd, PS)",target mRNA inhibition,"A431, 2 µM",75%
"AGTATTGTTTTTGTGG (sugars kkkddddkekekdddd, PS)",target mRNA inhibition,"A431, 2 µM",55%
"AGTCATTAGTGCTATA (sugars k4 d9 k3, PS)",target mRNA inhibition,"A431, 0.0625 µM",57%
same,target mRNA inhibition,"A431, 0.25 µM",78%
same,target mRNA inhibition,"A431, 1 µM",88%
"AGTTTCATATTCACCC (sugars k4 d9 k3, PS)",target mRNA inhibition,"A431, 0.0625 µM",58%
same,target mRNA inhibition,"A431, 0.25 µM",83%
same,target mRNA inhibition,"A431, 1 µM",94%
"AGTTTTGTAAGTGCAA (sugars k2 d4 e4 k2 d4, PS)",target mRNA inhibition,"A431, 0.0156 µM",4%
same,target mRNA inhibition,"A431, 0.0625 µM",23%
same,target mRNA inhibition,"A431, 0.25 µM",80%
same,target mRNA inhibition,"A431, 1 µM",91%
same,target mRNA inhibition,"A431, 2 µM",94%
"AGTTTTGTAAGTGCAA (sugars kkddddkekekkdddd, PS)",target mRNA inhibition,"A431, 2 µM",84%
"ATATCAGATGGGTACT (sugars kkkddddkekekdddd, PS)",target mRNA inhibition,"A431, 2 µM",28%
"ATCAGATGGGTACTTC (sugars k3 d4 k3 e1 d5, PS)",target mRNA inhibition,"A431, 2 µM",88%
"ATCAGATGGGTACTTC (sugars k4 d9 k3, PS)",target mRNA inhibition,"A431, 0.0625 µM",53%
same,target mRNA inhibition,"A431, 0.25 µM",78%
same,target mRNA inhibition,"A431, 1 µM",89%
"ATCAGATGGGTACTTC (sugars kkddddkekekddddd, PS)",target mRNA inhibition,"A431, 2 µM",66%
"ATGCGGTACTGACTGA (sugars k4 d9 k3, PS)",target mRNA inhibition,"A431, 0.0625 µM",49%
same,target mRNA inhibition,"A431, 0.25 µM",69%
same,target mRNA inhibition,"A431, 1 µM",88%
"ATGCTAATTTTCTGAC (sugars k2 d4 e3 k2 d5, PS)",target mRNA inhibition,"A431, 2 µM",88%
"ATGCTAATTTTCTGAC (sugars kkddddkekekddddd, PS)",target mRNA inhibition,"A431, 0.0156 µM",25%
same,target mRNA inhibition,"A431, 0.0625 µM",59%
same,target mRNA inhibition,"A431, 0.25 µM",84%
same,target mRNA inhibition,"A431, 1 µM",93%
same,target mRNA inhibition,"A431, 2 µM",97%
"ATGTCTCAAACTCCAC (sugars k4 d9 k3, PS)",target mRNA inhibition,"A431, 0.0625 µM",29%
same,target mRNA inhibition,"A431, 0.25 µM",63%
same,target mRNA inhibition,"A431, 1 µM",83%
"ATTCAGAATTTCCACT (sugars k2 d4 e3 k2 d5, PS)",target mRNA inhibition,"A431, 2 µM",77%
"ATTCAGAATTTCCACT (sugars kkdddddkekeddddd, PS)",target mRNA inhibition,"A431, 2 µM",88%
"ATTCAGAATTTCCACT (sugars kkddddekekeddddd, PS)",target mRNA inhibition,"A431, 2 µM",87%
"ATTCTATTAGAGGGCT (sugars k2 d4 e3 k2 d5, PS)",target mRNA inhibition,"A431, 2 µM",70%
"ATTCTATTAGAGGGCT (sugars kdddddkekekddddd, PS)",target mRNA inhibition,"A431, 2 µM",45%
"ATTCTATTAGAGGGCT (sugars kkddddkekekkdddd, PS)",target mRNA inhibition,"A431, 2 µM",34%
"ATTCTCATGGTACAGG (sugars k2 d4 e3 k2 d5, PS)",target mRNA inhibition,"A431, 0.0156 µM",13%
same,target mRNA inhibition,"A431, 0.0625 µM",34%
same,target mRNA inhibition,"A431, 0.25 µM",72%
same,target mRNA inhibition,"A431, 1 µM",90%
same,target mRNA inhibition,"A431, 2 µM",92%
"ATTCTCATGGTACAGG (sugars kdddddkekekddddd, PS)",target mRNA inhibition,"A431, 2 µM",83%
"ATTCTCATGGTACAGG (sugars kkddddkdkdkddddd, PS)",target mRNA inhibition,"A431, 2 µM",84%
"ATTCTCATGGTACAGG (sugars kkkddddkdkdkdddd, PS)",target mRNA inhibition,"A431, 2 µM",81%
"ATTCTGTGTGCTCACT (sugars k4 d9 k3, PS)",target mRNA inhibition,"A431, 0.0625 µM",65%
same,target mRNA inhibition,"A431, 0.25 µM",80%
same,target mRNA inhibition,"A431, 1 µM",92%
"ATTGGCTCAGTGACCC (sugars k4 d9 k3, PS)",target mRNA inhibition,"A431, 0.25 µM",72% and 76%
same,target mRNA inhibition,"A431, 1 µM",88% and 86%
"ATTTCTTGATGTGGTG (sugars kkddddkekekkdddd, PS)",target mRNA inhibition,"A431, 2 µM",69%
"CAAGGTTGTCCAGAGC (sugars k4 d9 k3, PS)",target mRNA inhibition,"A431, 0.0625 µM",31%
same,target mRNA inhibition,"A431, 0.25 µM",58%
same,target mRNA inhibition,"A431, 1 µM",64%
"CACATCATTGGGTTAT (sugars k2 d4 e3 k2 d5, PS)",target mRNA inhibition,"A431, 2 µM",86%
"CACATCATTGGGTTAT (sugars kkddddkdkdkddddd, PS)",target mRNA inhibition,"A431, 2 µM",79%
"CACCTGTTCACCGCTT (sugars k4 d9 k3, PS)",target mRNA inhibition,"A431, 0.0625 µM",41%
same,target mRNA inhibition,"A431, 0.25 µM",67%
same,target mRNA inhibition,"A431, 1 µM",87%
"CACTTGAGTCATTTGC (sugars k4 d9 k3, PS)",target mRNA inhibition,"A431, 0.0625 µM",37%
same,target mRNA inhibition,"A431, 0.25 µM",73%
same,target mRNA inhibition,"A431, 1 µM",86%

# Source: the OligoGym collection
